Laboratory results as given in patent US4693992A, “Bacitracin-metal-polyether antibiotic complexes” (International Minerals & Chemical Corp., priority 1985, dated 1987).

Legend:
[1] = Weight gain and feed utilization efficiency in chicks, 11 days (Example 13); format: in vivo, chicken; design: key to Average Weight: average weight in grams; conditions: .00275% in rye basal diet
Description: (§1) This example describes experimetnal testing of complexes of the present invention as feed additives for improving weight gain or feed utilization efficiency in birds. Test animals were male meat-type chickens (Hubbard strain). Fluorescent room lights were on a 16 hours light/8 hours dark schedule. The chicks were allotted to the pens on the basis of weight classes, and chicks in the even numbered pens were wing banded. Group weights were obtained at the start and individual weights at the termination of the experiment. Chicks weighing between 55 and 65 grams were selected for the test. The test compounds were blended with a basal feed ration (shown in Table 2) at the indicated concentration. Birds fed […] and feed supplemented with zinc bacitracin (Baciferm® 50, International Minerals and Chemical Corp.) were used as controls. The test was continued for 11 days, after which individual weights, pen weight and feed consumption were recorded and analyzed.

[2] = Weight gain and feed utilization in chicks, 12 days (Example 14); format: in vivo, chicken; conditions: .0066% in feed
Description: as §1
All of the bacitracin-metal-polyether antibiotic complexes tested produced statistically significant increases in gains compared to the unmedicated basal ration.
The test involving test compounds 1 and 3-14 consisted of 5 replicates of 7 chicks and those involving test compound 2 consisted of 6 replicates of 7 chicks. The tests were continued for 12 days, after which individual weight gains and feed conusumption were recorded and analyzed.

Eimeria tenella [3] = assay: Anticoccidial activity in chickens inoculated with Eimeria tenella oocysts (Example 11); format: in vivo; conditions: for Incidence of Bloody Droppings / Morbidity: 4th-6th day; for Mortality: 4th-7th day
Description: (§2) This example describes experimental testing of complexes of this invention for anticoccidial activity. Anticoccidial activities of test compounds were determined by administering the compounds (in feed) to chickens inoculated with active oocysts of Eimeria tenella. The test compounds, which are listed in Table 1 below, included four bacitracin-metal-polyether antibiotic complexes prepared according to the procedures described above. In addition, sodium lysocellin, regular bacitracin, sodium monensin, sodium lasolocid, and unmedicated inoculated and noninoculated controls were included for comparative purposes.
(§3) The test animals were Hubbard White Mountain male chicken (broiler strain) that were 5 days old at the beginning of the test. Each experimental compound was administered in a chick starter diet (Table 2) at a level of 80 g/ton and 120 g/ton. At 7 days of age, chicks were individually weighed, banded, and started on their respective treatments. Each treatment was replicated three times with five birds per replicate for a total of 15 birds per group. The test period was 10 days.
Seventy-two hours after the initiation of medication, birds were reweighed and orally inoculated with approximately 100,000 Eimeria tenella oocysts suspended in a 1 cc dose of saline. The following criteria were then evaluated over the next seven days: […]
a. morbidity (4th-6th day) b. mortality (4th-7th day) c. incidence of bloody droppings (4th-6th day)

Eimeria tenella [4] = assay: Anticoccidial activity in chickens inoculated with Eimeria tenella (Example 12); format: in vivo, chicken; conditions: for Cecal Bleeding / Gain/Bird Days 0-3 / Gain/Bird Days 4-10: regrouped part of Table 2
Description: as §2, §3
Seventy-two hours after the initiation of medication, birds were reweighed and orally inoculated with approximately 100,000 Eimeria tenella oocysts suspended in a 1 cc dose of saline. The following criteria were then evaluated over the next seven days:
A satisfactory challenge was obtained with Eimeria tenella.

[5] = 80 g/ton in feed, birds affected/birds in group
[6] = 80 g/ton in feed, birds dead/birds in group
[7] = 80 g/ton in feed, feed per gain
[8] = 120 g/ton in feed, birds affected/birds in group
[9] = 120 g/ton in feed, birds dead/birds in group
[10] = 120 g/ton in feed, feed per gain

## Bacitracin-Zn-Lasalocid Complex
[1]; 11 days
  Average Gain: 225 g
  Gain/Feed Ratio: 65.6
[1]; Table 4
  Average Weight: 285.6
  Gain/Feed: 65.6
[1]; unmedicated = 100
  Average Gain Index: 109.4
  Gain/Feed Ratio Index: 103.0
[2]; 12 days
  Gain/Feed Data: .609
  Gains/gram Data: 213.5 gram
[2]; #1 = unmedicated
  Gain/Feed Index Relative to #1: 108.2
  Gains Index Relative to #1: 115.3
[2]; #2 = zinc bacitracin
  Gain/Feed Index Relative to #2: 102.2
  Gains Index Relative to #2: 101.9

## CC[C@@]1([C@@H]2O[C@@H]([C@H]3O[C@@](O)(CO)[C@H](C)C[C@@H]3C)C[C@@H]2C)CC[C@H]([C@]2(C)CC[C@]3(C[C@H](O)[C@@H](C)[C@@H]([C@@H](C)[C@@H](OC)[C@H](C)C(=O)O)O3)O2)O1 [Monensin, sodium monensin, reference compound]
Eimeria tenella [3]; level in feed not given
  protection against cecal bleeding: fair
  tolerance by the birds: not tolerated well
  Incidence of Bloody Droppings: Slight
  Morbidity: 5/15
  Mortality: 0/15
  F/G Day 0-3: 1.81
  Gain, Grams Day 0-3: 53.2 Grams
  F/G Day 4-10: 1.64
  Gain, Grams Day 4-10: 202.5 Grams

## Bacitracin-Copper-Lysocellin Complex [Example 2]
Eimeria tenella [3]; 80 g/ton in feed
  Incidence of Bloody Droppings: Severe
  Gain, Grams Day 0-3: 59.0 Grams
  Gain, Grams Day 4-10: 200.2 Grams
Eimeria tenella [3]; [5]
  Morbidity: 6/15
Eimeria tenella [3]; [6]
  Mortality: 1/15
Eimeria tenella [3]; [7]
  F/G Day 0-3: 1.67
  F/G Day 4-10: 1.74
Eimeria tenella [3]; [8]
  Morbidity: 6/15
Eimeria tenella [3]; [9]
  Mortality: 0/15
Eimeria tenella [3]; 120 g/ton in feed
  Gain, Grams Day 0-3: 64.3 Grams
  Gain, Grams Day 4-10: 203.5 Grams
Eimeria tenella [3]; [10]
  F/G Day 0-3: 1.69
  F/G Day 4-10: 1.74
Eimeria tenella [4]; 14 g/ton Lasalocid (Approx.)
  Cecal Bleeding: Severe
  Gain/Bird Days 0-3: 60.5
  Gain/Bird Days 4-10: 171.5
Eimeria tenella [4]; 36 g/ton Lasalocid (Approx.)
  Cecal Bleeding: Slight-Moderate
  Gain/Bird Days 0-3: 57.0
  Gain/Bird Days 4-10: 198.7
Eimeria tenella [4]; 80 g/ton in feed
  Incidence of Bloody Droppings: Severe
  Morbidity: 5/15
  Mortality: 0/15
  F/G Day 0-3: 1.68
  Gain/Bird Grams Day 0-3: 60.5 Grams
  F/G Day 4-10: 1.92
  Gain/Bird Grams Day 4-10: 171.5 Grams
Eimeria tenella [4]; 80 gram per ton
  Cecal bleeding associated with E. tenella infections: severe
Eimeria tenella [4]; 80 gram per ton (lasalocid 24 gram per ton)
  weight gains compared with those of test compound 5 and lasalocid: appreciably higher
Eimeria tenella [4]; 120 g/ton in feed
  Morbidity: 4/15
  Mortality: 0/15
  F/G Day 0-3: 1.75
  Gain/Bird Grams Day 0-3: 57.0 Grams
  F/G Day 4-10: 1.74
  Gain/Bird Grams Day 4-10: 198.7 Grams
Eimeria tenella [4]; 120 grams per ton
  anticoccidial activity (in words): good anticoccidial activity

## CC[C@@H](C(=O)[C@@H](C)[C@@H](O)[C@H](C)CCc1ccc(C)c(O)c1C(=O)O)[C@H]1O[C@](CC)([C@H]2CC[C@](O)(CC)[C@H](C)O2)C[C@@H]1C [Lasalocid, sodium lasalocid, reference compound]
Eimeria tenella [3]; 80 and 120 g/ton, mild E. tenella challenge
  anticoccidial activity (in words): excellent anticoccidial activity
Eimeria tenella [3]; 80 g/ton in feed
  Incidence of Bloody Droppings: None
  Gain, Grams Day 0-3: 59.7 Grams
  Gain, Grams Day 4-10: 232.4 Grams
Eimeria tenella [3]; [5]
  Morbidity: 0/15
Eimeria tenella [3]; [6]
  Mortality: 0/15
Eimeria tenella [3]; [7]
  F/G Day 0-3: 1.68
  F/G Day 4-10: 1.58
Eimeria tenella [3]; 120 g/ton in feed
  Incidence of Bloody Droppings: None
  Gain, Grams Day 0-3: 55.7 Grams
  Gain, Grams Day 4-10: 230.1 Grams
Eimeria tenella [3]; [8]
  Morbidity: 1/15
Eimeria tenella [3]; [9]
  Mortality: 0/15
Eimeria tenella [3]; [10]
  F/G Day 0-3: 1.75
  F/G Day 4-10: 1.56
Eimeria tenella [4]; 14 g/ton Lasalocid (Approx.)
  Cecal Bleeding: Severe
  Gain/Bird Days 0-3: 58.7
  Gain/Bird Days 4-10: 148.5
Eimeria tenella [4]; 24 (.30 of 80) gram per ton
  Cecal bleeding associated with E. tenella infections: severe
Eimeria tenella [4]; 24 g/ton in feed
  Incidence of Bloody Droppings: Severe
  Morbidity: 9/15
  Mortality: 0/15
  F/G Day 0-3: 1.78
  Gain/Bird Grams Day 0-3: 58.7 Grams
  F/G Day 4-10: 2.09
  Gain/Bird Grams Day 4-10: 148.5 Grams
Eimeria tenella [4]; 36 g/ton Lasalocid (Approx.)
  Cecal Bleeding: Moderate
  Gain/Bird Days 0-3: 61.5
  Gain/Bird Days 4-10: 176.5
Eimeria tenella [4]; 36 g/ton in feed
  Incidence of Bloody Droppings: Moderate
  Morbidity: 5/14
  Mortality: 1/14
  F/G Day 0-3: 1.74
  Gain/Bird Grams Day 0-3: 61.5 Grams
  F/G Day 4-10: 1.86
  Gain/Bird Grams Day 4-10: 176.5 Grams
Eimeria tenella [4]; 80 g/ton in feed
  Incidence of Bloody Droppings: None
  Morbidity: 1/15
  Mortality: 0/15
  F/G Day 0-3: 1.71
  Gain/Bird Grams Day 0-3: 58.0 Grams
  F/G Day 4-10: 1.60
  Gain/Bird Grams Day 4-10: 219.4 Grams
Eimeria tenella [4]; 120 g/ton in feed
  Incidence of Bloody Droppings: None
  Morbidity: 0/15
  Mortality: 0/15
  F/G Day 0-3: 1.76
  Gain/Bird Grams Day 0-3: 52.1 Grams
  F/G Day 4-10: 1.52
  Gain/Bird Grams Day 4-10: 225.2 Grams
